Each structure is given as a SMILES string.

These results are taken from patent publication US11684595B2, “Characterization of the oral microbiome for the non-invasive diagnosis of Barrett's esophagus” (The Trustees of Columbia University in the City of New York, priority 2017, dated 2023).

Format in all cases: in vivo, human
In assay [1] the test system is culturable bacteria in the esophagus. The experiment in a line: Culture of esophageal brushings on TSA plates with 5% sheep blood after two weeks of mouth rinse (randomized trial). The protocol:
A randomized controlled trial of chlorhexidine antimicrobial mouth rinse study was conducted in patients scheduled to undergo upper endoscopy. It is postulated that the microbiome may play a role in the development of various esophageal and other upper gastrointestinal diseases such as Barrett's esophagus and esophageal cancer. The microbiome of the upper gastrointestinal tract is heavily influenced by migration of bacteria from the mouth via swallowed secretions. Therefore, it stands to reason that altering the oral microbiome can directly impact the microbiome of the esophagus and gastric cardia. Chlorhexidine mouth rinse (i.e. an antiseptic oral rinse) effectively alters levels of many bacteria in the mouth, including anaerobes and species that are not easily cultured, and also has anti-inflammatory effects. A randomized open-label pilot study was performed to test this hypothesis that use of an antimicrobial mouth rinse alters the microbiome of the lower esophagus and gastric cardia.
(§1) The enrolled subjects were those already scheduled for upper endoscopy for clinical indications. • Subjects were randomized 1:1 to receive 0.12% chlorhexidine mouth rinse or no treatment. • Antimicrobial mouth rinse was used twice daily for two weeks leading up to the endoscopy. The two-week time frame was chosen as a practical end-point for the clinical study, and treatment can be for any desired period of time, i.e. to obtain the desired microbiome mix. • Baseline sample collection: Saliva, oral swab. • Samples collected at follow-up (day of endoscopy): Saliva, oral swab, esophageal brushings, gastric cardia brushings.
(§2) Patients scheduled to undergo upper endoscopy were randomized to treatment with chlorhexidine 0.12% mouth rinse or no mouth rinse for two weeks leading up to the endoscopy. Oral samples (swabs and saliva) were collected at baseline and after two weeks. During the endoscopy, brushings of the esophagus and of the gastric cardia were collected to sample the microbiome.
An interim analysis was performed on the esophageal brushings collected during upper endoscopy. Approximately one half of the bacteria in the esophagus can be readily cultured. Thus, it was hypothesized that a change in the amount of culturable bacteria (either increased or decreased) would reflect a change in the proportion of culturable:non-culturable bacteria in the esophagus. Samples from the first 14 subjects (8 controls not using mouth rinse, 6 subjects using chlorhexidine mouth rinse) were collected, and solutions were prepared from these samples. The samples were then plated onto trypticase soy agar (TSA) plates with 5% sheep blood and incubated for 18 hours at 37° C.

The subject of assay [2] is salivary microbiome. The experiment in a line: 16S rRNA gene sequencing of saliva, randomized trial of antimicrobial mouth rinse. Particulars: LEfSe.
From the text: as §1, §2
16 S rRNA gene sequencing was performed on all of the biosamples. The V3-V4 hypervariable region for all samples was sequenced using the Illumina HiSeq 2500 in Rapid Mode with 2×300 bp read length (Illumina, San Diego, Calif.). The Greengenes reference database was used. Taxonomic units were clustered at 97% sequence similarity using USEARCH and taxonomic assignments were made using mothur. […]

For assay [3], the system named is esophageal microbiome. The experiment in a line: 16S rRNA gene sequencing of esophageal brushings, randomized trial of antimicrobial mouth rinse.
From the text: as §1, §2
16 S rRNA gene sequencing was performed on all of the biosamples. The V3-V4 hypervariable region for all samples was sequenced using the Illumina HiSeq 2500 in Rapid Mode with 2×300 bp read length (Illumina, San Diego, Calif.). The Greengenes reference database was used. Taxonomic units were clustered at 97% sequence similarity using USEARCH and taxonomic assignments were made using mothur. A phylogenetic tree of the contigs was generated with FastTree version 2.1.7.
In order to determine whether chlorhexidine alters the esophageal microbiome, a comparison of the microbiome composition from esophageal samples was performed, comparing the treatment and no treatment arms.

Where [4] appears, read: 0.12% mouth rinse twice daily for two weeks before endoscopy, n = 6, plated on TSA, 18 hours at 37° C.

With `[H]/N=C(\N/C(=N/[H])NCCCCCCNC(=N)NC(=N)Nc1ccc(Cl)cc1)Nc1ccc(Cl)cc1` [Chlorhexidine, chlorhexidine], in assay [1] (setting [4]), the “Mean (SE) CFU/mL from esophageal brushings collected at endoscopy” value is on record as 56,433 (42,654) CFU/mL and the “Mean (SE) number of colonies from esophageal brushings collected at endoscopy” value is on record as 282 (213). Besides, in assay [1] (FIGS. 3A-B), the “numbers of culturable bacteria (colonies and CFU/mL) in the esophagus compared to no chlorhexidine rinse” value was “increased numbers of culturable bacteria”. Moreover, in assay [1] (esophageal brushings, 6 subjects using rinse vs 8 controls), the “increase in growth of culturable bacteria compared to the arm not receiving mouth rinse” value is reported as 68%. Besides, in assay [2] (2 weeks' treatment, FIG. 4A), the “taxonomic changes in salivary microbiome after treatment compared to baseline” value is “Numerous taxa were altered”. In assay [2] (follow-up, FIG. 4B), the “differences in salivary microbiome at follow-up versus no treatment in phylum Firmicutes and species Haemophilus parainfluenzae” value is reported as “large differences were seen”. The “beta diversity analysis of esophageal microbiome, clustering by treatment group” value in assay [3] (FIG. 5) was “significant clustering by treatment group”. Besides, in assay [3] (FIGS. 5-6), the “esophageal microbiome composition compared to patients receiving no treatment” value is listed as “markedly distinct”. Moreover, in assay [3] (vs no treatment arm, FIG. 6), the “relative abundance of Haemophilus in the esophageal microbiome” value is on record as “significantly decreased” and the “relative abundance of Streptococcus in the esophageal microbiome” value is reported as “increased”.
